The record followed here is ChEMBL document CHEMBL3430320, “Prediction of Thorough QT study results using action potential simulations based on ion channel screens” (J Pharmacol Toxicol Methods, 2014).

Data set [1] addresses T1, Voltage-gated potassium channel, IKs; KCNQ1(Kv7.1)/KCNE1(MinK) (Homo sapiens, UniProt P51787+P15382). Briefly: Inhibition of slow delayed inward rectifying potassium current (Iks) in Chinese Hamster Ovary (CHO) cells transfected with KCNQ1 / […] / KvLQT1 and KCNE1/minK measured using IonWorks automated patch clamp platform. The data set is classed as functional, cell-based, Cricetulus griseus. On the technique in general: The patch-clamp technique gives a direct electrical read-out from membranes.

In data set [2] the target is T2, Voltage-dependent L-type calcium channel subunit alpha-1C (Homo sapiens, UniProt Q13936). Briefly: Inhibition of long-lasting type calcium current (hICa) in Chinese Hamster Ovary (CHO) cells expressing hCav1.2 measured using IonWorks Quattro automated patch clamp platform. It counts as functional, cell-based, Cricetulus griseus.
The target of data set [3] is T2, Voltage-dependent L-type calcium channel subunit alpha-1C. Briefly: Inhibition of long-lasting type calcium current (ICaL) in HEK293 cells (alpha1C/beta2a/alpha2delta1) cells measured using IonWorks Barracuda automated patch clamp platform. The data set is classed as functional, cell-based.
In data set [4] the target is T3, A-type voltage-gated potassium channel KCND3 (Homo sapiens, UniProt Q9UK17).
T3 sequence (Q9UK17 whole entry): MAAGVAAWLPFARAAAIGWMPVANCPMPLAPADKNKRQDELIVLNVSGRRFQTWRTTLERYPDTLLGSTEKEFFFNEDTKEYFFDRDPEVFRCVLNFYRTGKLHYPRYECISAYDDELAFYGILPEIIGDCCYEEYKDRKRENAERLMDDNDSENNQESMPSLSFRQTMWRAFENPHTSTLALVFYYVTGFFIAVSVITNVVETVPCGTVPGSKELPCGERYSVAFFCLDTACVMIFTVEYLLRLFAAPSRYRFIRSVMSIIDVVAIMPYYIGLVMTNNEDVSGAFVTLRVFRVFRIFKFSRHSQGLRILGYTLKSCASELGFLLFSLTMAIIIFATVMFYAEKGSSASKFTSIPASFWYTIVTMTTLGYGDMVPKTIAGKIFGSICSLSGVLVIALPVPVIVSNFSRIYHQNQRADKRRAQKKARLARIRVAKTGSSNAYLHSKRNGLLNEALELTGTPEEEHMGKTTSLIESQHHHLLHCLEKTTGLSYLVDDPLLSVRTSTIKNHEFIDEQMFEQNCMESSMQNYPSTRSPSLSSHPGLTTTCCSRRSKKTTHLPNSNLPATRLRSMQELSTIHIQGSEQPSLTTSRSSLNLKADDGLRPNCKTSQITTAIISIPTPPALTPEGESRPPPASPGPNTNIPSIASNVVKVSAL
Kind of data set: Inhibition of transient outward potassium current (Ito) current in Chinese Hamster Ovary (CHO) K1 cells expressing human Kv4.3 measured using IonWorks Quattro automated patch clamp platform. It counts as functional, cell-based, Cricetulus griseus.

The target in data set [5] is T4, Voltage-gated inwardly rectifying potassium channel KCNH2 (Homo sapiens, UniProt Q12809). Kind of data set: Inhibition of rapid delayed inward rectifying potassium current (IKr) in Chinese hamster ovary (CHO) K1 cells stably expressing hERG measured using IonWorks Quattro automated patch clamp platform. The data set is classed as functional, cell-based, Cricetulus griseus. Background: hERG is a cardiac potassium channel; its block is linked to QT prolongation.

Data set [6] has as its target T4, Voltage-gated inwardly rectifying potassium channel KCNH2. Kind of data set: Inhibition of rapid delayed inward rectifying potassium current (IKr) in Chinese hamster ovary (CHO) cells stable expressing hERG measured using IonWorks Barracuda automated patch clamp platform. It counts as functional, cell-based, Cricetulus griseus.
Data set [7] concerns the target T1, Voltage-gated potassium channel, IKs; KCNQ1(Kv7.1)/KCNE1(MinK). Kind of data set: (§1) Inhibition of slow delayed inward rectifying potassium current (Iks) in Chinese Hamster Ovary (CHO) cells expressing hKvLQT1/hminK measured using IonWorks Quattro automated patch clamp platform. The data set is classed as functional, cell-based, Cricetulus griseus.
In data set [8] the target is Sodium channel protein type 5 subunit alpha (Homo sapiens, UniProt Q14524). Kind of data set: Inhibition of fast sodium current (INa) in HEK293 cells transfected with human Nav1.5 measured using IonWorks Quattro automated patch clamp platform. The data set is classed as functional, cell-based.
Data set [9] addresses T4, Voltage-gated inwardly rectifying potassium channel KCNH2. Kind of data set: Inhibition of rapid delayed inward rectifying potassium current (IKr) measured using manual patch clamp assay. It counts as functional.
Data set [10] shares this target.
Data set [11] has as its target Voltage-gated potassium channel, IKs; KCNQ1(Kv7.1)/KCNE1(MinK) (Homo sapiens, UniProt P15382+P51787). The description is as §1. It counts as functional, cell-based, Cricetulus griseus.

T2 sequence (Q13936 whole entry): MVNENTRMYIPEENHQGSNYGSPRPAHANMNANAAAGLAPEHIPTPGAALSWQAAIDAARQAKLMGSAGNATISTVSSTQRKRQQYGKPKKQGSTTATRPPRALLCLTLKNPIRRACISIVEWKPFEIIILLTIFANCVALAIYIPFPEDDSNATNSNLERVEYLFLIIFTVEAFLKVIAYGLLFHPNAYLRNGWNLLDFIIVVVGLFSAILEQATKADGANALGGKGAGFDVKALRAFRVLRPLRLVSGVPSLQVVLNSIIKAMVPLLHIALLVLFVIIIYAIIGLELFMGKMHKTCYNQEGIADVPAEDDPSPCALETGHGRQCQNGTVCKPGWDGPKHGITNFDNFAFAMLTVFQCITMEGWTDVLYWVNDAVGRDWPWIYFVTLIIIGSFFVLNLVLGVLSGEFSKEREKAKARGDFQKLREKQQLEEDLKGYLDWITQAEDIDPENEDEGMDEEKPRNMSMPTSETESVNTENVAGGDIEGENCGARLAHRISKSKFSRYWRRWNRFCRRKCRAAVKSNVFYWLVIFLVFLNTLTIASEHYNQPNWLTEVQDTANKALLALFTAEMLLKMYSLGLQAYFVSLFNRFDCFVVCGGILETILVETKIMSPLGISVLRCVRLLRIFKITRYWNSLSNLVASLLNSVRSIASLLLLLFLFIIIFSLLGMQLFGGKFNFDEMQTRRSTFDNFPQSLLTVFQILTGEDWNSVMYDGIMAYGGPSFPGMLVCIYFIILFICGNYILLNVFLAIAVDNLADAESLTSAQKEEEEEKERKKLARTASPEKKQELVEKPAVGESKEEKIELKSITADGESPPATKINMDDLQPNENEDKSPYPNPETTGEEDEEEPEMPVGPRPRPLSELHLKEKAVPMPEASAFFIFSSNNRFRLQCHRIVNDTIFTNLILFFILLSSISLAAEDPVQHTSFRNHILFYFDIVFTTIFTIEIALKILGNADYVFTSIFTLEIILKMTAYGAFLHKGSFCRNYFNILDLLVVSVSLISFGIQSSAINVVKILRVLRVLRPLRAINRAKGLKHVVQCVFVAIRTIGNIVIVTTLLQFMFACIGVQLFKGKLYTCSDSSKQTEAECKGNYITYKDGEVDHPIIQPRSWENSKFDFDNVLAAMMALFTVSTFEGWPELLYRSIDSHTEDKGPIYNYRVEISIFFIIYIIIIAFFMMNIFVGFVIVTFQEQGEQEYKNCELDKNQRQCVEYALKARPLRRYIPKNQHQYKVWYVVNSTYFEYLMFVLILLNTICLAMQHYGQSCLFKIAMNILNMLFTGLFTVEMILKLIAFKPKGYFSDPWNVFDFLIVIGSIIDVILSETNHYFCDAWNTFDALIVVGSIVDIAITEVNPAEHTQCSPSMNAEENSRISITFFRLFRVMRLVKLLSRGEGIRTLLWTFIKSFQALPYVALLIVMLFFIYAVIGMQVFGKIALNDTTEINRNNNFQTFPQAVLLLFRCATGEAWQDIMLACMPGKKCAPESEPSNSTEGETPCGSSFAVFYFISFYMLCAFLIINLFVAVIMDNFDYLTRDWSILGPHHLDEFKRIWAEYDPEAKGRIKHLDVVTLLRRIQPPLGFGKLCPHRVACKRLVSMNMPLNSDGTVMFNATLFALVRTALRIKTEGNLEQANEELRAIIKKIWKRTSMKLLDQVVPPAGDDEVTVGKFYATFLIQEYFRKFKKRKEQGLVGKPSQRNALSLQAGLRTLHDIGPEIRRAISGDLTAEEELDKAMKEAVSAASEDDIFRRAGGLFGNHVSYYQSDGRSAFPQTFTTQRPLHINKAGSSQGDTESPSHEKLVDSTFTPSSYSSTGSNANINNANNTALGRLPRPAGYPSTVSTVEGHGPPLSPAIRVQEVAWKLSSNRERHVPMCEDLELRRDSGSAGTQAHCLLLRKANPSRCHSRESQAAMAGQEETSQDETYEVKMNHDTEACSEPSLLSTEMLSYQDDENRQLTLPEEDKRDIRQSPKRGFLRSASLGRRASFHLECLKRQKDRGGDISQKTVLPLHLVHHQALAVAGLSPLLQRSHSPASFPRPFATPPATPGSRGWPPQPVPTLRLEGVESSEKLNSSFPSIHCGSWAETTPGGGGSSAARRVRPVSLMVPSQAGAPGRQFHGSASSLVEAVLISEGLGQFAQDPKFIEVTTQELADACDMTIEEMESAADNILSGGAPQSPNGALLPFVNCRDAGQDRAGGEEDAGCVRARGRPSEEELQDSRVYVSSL
T1 sequence (P51787 whole entry): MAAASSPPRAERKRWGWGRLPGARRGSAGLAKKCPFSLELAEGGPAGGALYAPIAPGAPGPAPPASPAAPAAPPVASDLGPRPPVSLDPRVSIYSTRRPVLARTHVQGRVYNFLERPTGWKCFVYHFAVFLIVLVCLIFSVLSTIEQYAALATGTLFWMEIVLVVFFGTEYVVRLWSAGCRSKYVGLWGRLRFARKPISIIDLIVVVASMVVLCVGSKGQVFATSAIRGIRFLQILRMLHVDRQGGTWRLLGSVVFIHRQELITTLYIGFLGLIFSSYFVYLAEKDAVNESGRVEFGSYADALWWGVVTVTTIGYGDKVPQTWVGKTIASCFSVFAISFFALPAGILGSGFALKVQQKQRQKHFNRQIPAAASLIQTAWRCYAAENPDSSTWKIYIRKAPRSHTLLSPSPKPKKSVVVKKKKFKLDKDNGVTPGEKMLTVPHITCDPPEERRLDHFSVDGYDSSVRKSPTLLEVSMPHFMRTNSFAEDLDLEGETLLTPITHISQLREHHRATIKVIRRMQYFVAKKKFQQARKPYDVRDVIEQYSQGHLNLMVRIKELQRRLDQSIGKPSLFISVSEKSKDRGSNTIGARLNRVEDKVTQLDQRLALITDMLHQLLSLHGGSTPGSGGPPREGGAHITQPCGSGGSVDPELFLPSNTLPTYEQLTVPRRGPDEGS
T4 sequence (Q12809 whole entry): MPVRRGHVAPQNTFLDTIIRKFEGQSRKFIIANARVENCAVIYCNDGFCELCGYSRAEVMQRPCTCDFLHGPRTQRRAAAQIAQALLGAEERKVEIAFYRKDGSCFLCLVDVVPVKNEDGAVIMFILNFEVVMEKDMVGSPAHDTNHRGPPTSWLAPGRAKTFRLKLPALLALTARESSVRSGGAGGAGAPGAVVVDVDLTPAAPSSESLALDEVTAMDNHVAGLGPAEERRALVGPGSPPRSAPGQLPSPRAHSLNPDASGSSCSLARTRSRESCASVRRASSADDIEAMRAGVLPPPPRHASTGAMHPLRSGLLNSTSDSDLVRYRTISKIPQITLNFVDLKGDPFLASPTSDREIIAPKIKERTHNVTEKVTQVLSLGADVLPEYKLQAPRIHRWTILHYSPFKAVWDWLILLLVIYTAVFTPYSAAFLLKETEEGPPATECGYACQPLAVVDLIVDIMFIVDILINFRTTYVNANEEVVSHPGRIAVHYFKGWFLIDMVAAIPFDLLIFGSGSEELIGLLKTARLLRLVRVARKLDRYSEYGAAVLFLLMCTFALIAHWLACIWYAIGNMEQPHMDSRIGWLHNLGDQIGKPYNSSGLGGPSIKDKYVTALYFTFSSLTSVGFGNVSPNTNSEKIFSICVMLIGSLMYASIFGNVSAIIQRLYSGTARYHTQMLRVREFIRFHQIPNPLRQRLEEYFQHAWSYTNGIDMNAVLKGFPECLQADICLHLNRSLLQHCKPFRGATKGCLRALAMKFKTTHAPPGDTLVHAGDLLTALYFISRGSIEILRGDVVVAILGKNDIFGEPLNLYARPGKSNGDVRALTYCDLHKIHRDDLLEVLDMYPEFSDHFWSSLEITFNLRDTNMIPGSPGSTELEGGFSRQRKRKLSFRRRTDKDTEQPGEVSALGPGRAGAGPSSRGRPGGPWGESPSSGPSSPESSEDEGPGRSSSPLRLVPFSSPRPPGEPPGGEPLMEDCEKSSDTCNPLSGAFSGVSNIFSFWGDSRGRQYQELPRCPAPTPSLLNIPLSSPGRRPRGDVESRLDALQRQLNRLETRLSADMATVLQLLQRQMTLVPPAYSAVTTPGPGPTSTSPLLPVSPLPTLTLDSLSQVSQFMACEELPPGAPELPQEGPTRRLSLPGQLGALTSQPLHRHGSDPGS
Voltage-gated potassium channel, IKs; KCNQ1(Kv7.1)/KCNE1(MinK) (Homo sapiens, UniProt P15382+P51787), sequence (P51787 whole entry): as the sequence (P51787 whole entry) above

On to `CCCc1nc(C)c2c(=O)[nH]c(-c3cc(S(=O)(=O)N4CCN(CC)CC4)ccc3OCC)nn12`, for which the pIC50 (as a rule, the IC50 on a negative log10 scale, so that one unit is a factor of ten) in data set [1] is reported as “Inactive”.
On to `Cc1c(O)cccc1C(=O)N[C@@H](CSc1ccccc1)[C@H](O)CN1C[C@H]2CCCC[C@H]2C[C@H]1C(=O)NC(C)(C)C`, for which the pIC50 result in data set [2], in [3] and in data set [1] was “Inactive” each time.
Consider `COc1cc2nc(N(C)CCCNC(=O)C3CCCO3)nc(N)c2cc1OC` (stereo unspecified) [ALFUZOSIN], for which the negative-log IC50 (pIC50) result in [3] and in [1] was “Inactive” in each case.
In the case of `C[C@H]1CN(C[C@H](Cc2ccccc2)C(=O)NCC(=O)O)CC[C@@]1(C)c1cccc(O)c1` [ALVIMOPAN], in data set [4], the pIC50 result was “Inactive”.
As to `COC(c1ccccc1)(c1ccccc1)[C@H](Oc1nc(C)cc(C)n1)C(=O)O` [AMBRISENTAN], the negative logarithm of the IC50 (pIC50) result in data set [3] is “Inactive”; in data set [5], 2.1; in data set [6], “Inactive”.
As to `Cc1nc(Nc2ncc(C(=O)Nc3c(C)cccc3Cl)s2)cc(N2CCN(CCO)CC2)n1.O` [DASATINIB], the pIC50 entry in data set [1] was “Inactive”.
Consider `O=C(O)c1ccc(-n2nc(-c3ccccc3O)nc2-c2ccccc2O)cc1` [DEFERASIROX], for which the pIC50 result in data set [3], in [7], in data set [1], in data set [5] and in data set [6] was “Inactive” throughout.
For `CN(C)CC(c1ccc(O)cc1)C1(O)CCCCC1` (stereo unspecified) [DESVENLAFAXINE], the negative logarithm of the IC50 (pIC50) result in [2] was “Inactive”; in data set [3], “Inactive”; in data set [7], “Inactive”; in [1] it was “Inactive”; in data set [5], 1.7; in data set [6], “Inactive”.
For `C[C@@H](O)[C@H]1C(=O)N2C(C(=O)O)=C(S[C@@H]3CN[C@H](CNS(N)(=O)=O)C3)[C@H](C)[C@H]12` [DORIPENEM], the pIC50 result in data set [4] is reported as “Inactive”.
`CC1=NN(c2ccc(C)c(C)c2)C(=O)/C1=N\Nc1cccc(-c2cccc(C(=O)O)c2)c1O` [ELTROMBOPAG]: the pIC50 result in data set [2], in data set [3], in [7], in data set [1] and in [5] was “Inactive” in each case.
For the compound `Cc1cc(C#N)cc(C)c1Oc1nc(Nc2ccc(C#N)cc2)nc(N)c1Br` [ETRAVIRINE], the pIC50 result in data set [2], in data set [3] and in data set [1] was “Inactive” each time.
For `CO[C@H]1C[C@@H]2CC[C@@H](C)[C@@](O)(O2)C(=O)C(=O)N2CCCC[C@H]2C(=O)O[C@H]([C@H](C)C[C@@H]2CC[C@@H](OCCO)[C@H](OC)C2)CC(=O)[C@H](C)/C=C(\C)[C@@H](O)[C@@H](OC)C(=O)[C@H](C)C[C@H](C)/C=C/C=C/C=C/1C` [EVEROLIMUS], the pIC50 entry in data set [2], in data set [3] and in data set [1] was “Inactive” throughout.
With `Nc1nnc(-c2cccc(Cl)c2Cl)c(N)n1` [LAMOTRIGINE], the pIC50 result in data set [1] and in data set [4] was “Inactive” throughout.
As for `CS(=O)(=O)CCNCc1ccc(-c2ccc3ncnc(Nc4ccc(OCc5cccc(F)c5)c(Cl)c4)c3c2)o1` [LAPATINIB], the pIC50 result in data set [8], in data set [1] and in data set [4] was “Inactive” throughout.
Regarding `OC(CNCC(O)C1CCc2cc(F)ccc2O1)C1CCc2cc(F)ccc2O1` (stereo unspecified) [NEBIVOLOL], inhibition in [9] was half-maximal at 0.316 µM (IC50). Also, the negative-log IC50 (pIC50) entry in [2] is listed as “Inactive”.
On to `Cc1cn(-c2cc(NC(=O)c3ccc(C)c(Nc4nccc(-c5cccnc5)n4)c3)cc(C(F)(F)F)c2)cn1` [NILOTINIB], for which the negative logarithm of the IC50 (pIC50) result in data set [1] is “Inactive”.
In the case of `O=C1c2cccc3c2[C@H](CCC3)CN1[C@@H]1CN2CCC1CC2` [PALONOSETRON], the IC50 (in general, the point on the concentration scale where inhibition reaches its midpoint) in [9] was 2 µM. For the same compound, the negative-log IC50 (pIC50) result in data set [4] was “Inactive”.
As to `C[C@H](Cc1cc2c(c(C(N)=O)c1)N(CCCO)CC2)NCCOc1ccccc1OCC(F)(F)F` [SILODOSIN], in [10], half-maximal inhibition (IC50) required 7.94 µM.
For the compound `N[C@@H](CC(=O)N1CCn2c(nnc2C(F)(F)F)C1)Cc1cc(F)c(F)cc1F` [SITAGLIPTIN], the negative logarithm of the IC50 (pIC50) result in data set [3] and in data set [1] was “Inactive” each time.
On to `Cc1cn([C@@H]2C[C@@H](O)[C@H](CO)O2)c(=O)[nH]c1=O` [TELBIVUDINE], for which the pIC50 entry in data set [2] was “Inactive”; in [4] it was “Inactive”; in [5] it was 2.3.
For `Cc1ccc(O)c([C@H](CCN(C(C)C)C(C)C)c2ccccc2)c1` [TOLTERODINE], the IC50 in [11] is 79.4 µM.
